In patent US11540515B2, “Use of dialkoxybenzenes for control of honey bee mite varroa destructor” (Simon Fraser University, priority 2018, dated 2023):

Columns and labels:
[1] = tested on: Varroa mites; test: Evaluation of acaricidal effect: emerging bees loaded with Varroa mites in glass petri dish, compound on Parafilm; assay type: in vivo, Varroa destructor
Description: The effect of the compounds was checked in free moving-mites freshly collected from the bottom board using fine paint brush. All collected Varroa were kept on emerging bees at room temperature until the experiment.
Compounds (code-labeled, Table 1) were prepared in hexane:ethyl acetate (1:1) in 10 mM concentration according to instructions. Dilutions only of compound “A” was prepared. […] This setup enabled the testing of all the compounds and to save the mites.
The assay was conducted in glass petri dish (90 mm diameter and 17 mm deep glass) containing moistened filter paper. Five emerging bees loaded with two Varroa mites were put into each plate. The bees were provided with candy (60% of pollen and 40% sugar). 10 μl or 30 μl volume of each compound or control mix was placed on Parafilm paper (5×5 cm) on the plates cover.

[2] = tested on: Varroa; test: Choice bioassay (forager vs nurse bee) in petri dish; assay type: in vivo, Varroa destructor; details: in presence of compound, monitored for 3 hours
Description: Functional activity of the compound was performed using choice bioassay. Briefly, in the presence of the synthetic compound or solvent as a control, the mites were given a choice of two bees (a forager and a nurse) in a petri dish (90 mm diameter and 17 mm deep glass). The movement of Varroa and its host preference were monitored at every hour for 3 hours.

[3] = tested on: honey bees; test: Bee mortality in hoarding cages, 3c{3,6} sensed by smell; assay type: in vivo, Apis mellifera
Description: 3c{3,6} sensed by smell: Bees were maintained in the classic hoarding cages. The test was conducted on twenty freshly collected bees in hoarding cages as above. The method that was used for screening potentially harmful compounds was as described, for example, in Medrzycki et al., 2013 (J. Apicultural Res. 52 (4): UNSP 52.4.14, http://dx.doi.org/10.3896/IBRA.1.52.4.14, incorporated herein by reference in its entirety. The bees were provided with water and candy at lib. The experiments were conducted in ten sets in the presence of 30 μl of hexane containing 300 μg of the 3c{3,6} compound presented in Parafilm (5×5 cm); 30 μl of pure hexane was used for control. The experimental and control cages were kept in separate incubators at (28-30° C.) and RH (50-70%) and the bee mortality rate was recorded at 24, 48 and 72 hours. Survival of bees in control and treated groups at the end was similar (79-90%).

[4] = tested on: Varroa destructor mites; test: Example 3 paralysis assays in petri dishes (dose response, screen, blends); assay type: in vivo
Description: Paralysis assays. These assays were done in 10 cm glass Petri dishes. A 3×3 cm piece of Parafilm was stuck to the lid of the dish, in the middle. The Parafilm received […], either pure (controls) or with the compound (treatments). The bottom of the dish received one freshly thawed nurse and one freshly thawed forager, placed ˜3 cm from the center of the dish. One mite was placed between the nurse and the forager, the lid was closed and groups of dishes were placed in an incubator at 30° C. Humidity levels were kept at around 35-40%.
Observation times were 3 h and 5 h. Mites were scored for whether the mite could move normally, was paralyzed (had difficulty moving) or dead (not moving).
Each assay was done in 5 technical replicates, in two biological replicates. Thus, each biological replicate was scored out of 5.
Experiments were performed in the dishes: i) dose response assays with a single compound at different doses of compound on the Parafilm (1 ng, 10 ng, 100 ng, 1 μg, 10 μg, 100 μg, 1 mg and 10 mg), ii) a screen with six compounds, all at a 1 mg dose, iii) an assay with blends of compounds 3c{3,6} and 3c{6,6}, and iv) one assay without bees (only to check for mite paralysis and death), with compounds 3c{3,6} and 3c{6,6}(pure or 1:1 blend), at 0.5 and 1 mg doses.

[5] = tested on: Varroa mites in honey bee colony; test: Colony test with solid 3c{3,6} in organza bags; assay type: in vivo, Varroa destructor; details: after each addition of solid compound in sachets
Description: Colony test. One colony of two supers was treated with solid 3c{3,6}, delivered in organza bags. The colony was otherwise healthy (apart from having Varroa mites), and the bee cluster reached over both boxes. Above the top box was placed a queen excluder and a top-feeding box. The following treatments were done: i) Day 1: 4×60 mg with bags placed above the cluster in the top box (below the queen excluder) only; ii) After 30 days: 4×60 mg with bags placed above the cluster in the top box (below the queen excluder) only; iii) After an additional 14 days, 4×100 mg with two bags placed on top of the lower box (i.e. between the two boxes) and two bags placed on top of the cluster on the top box (just below the queen excluder) iv) After an additional 7 days, 4×100 mg was added and the bags from the previous week were kept in. On the third treatment two Pasteur pipettes with Porapak (wedged between glass wool plugs in the pipette) were installed, one in the middle of the top cluster, the other on the edge of the cluster. These were removed. The colony was fitted with a screened bottom platform and a white Varroa counting drawer underneath the screen. Mites on the counting drawer board were counted every few days.
Porapak cartridges were extracted with hexane:ethyl acetate (4:1) with 40 ng/μL of 1,4-dimethoxybenzene as internal standard. […]

[6] = tested on: Varroa mites phoretic on young bees; test: Example 2 assay on mites phoretic on young bees (mite fall); assay type: in vivo, Varroa destructor; details: 100 microgram/μl solution and dilutions; end of experiment
Description: (§1) The experiments were conducted in glass petri dish under control environment as described above in Example 1. Two sets of experiments were conducted compound 3c{3,6}:
(§2) 2. Assay on mites phoretic on young bees. In this experiment 100 microgram/μ1 solution and its dilutions were used. Two mites were placed on each living young bee.
(§3) In the second assay the percentage of mites dropping from bees as function of time was measured (FIG. 2).

[7] = tested on: young bees; test: Example 2 assay on mites phoretic on young bees: condition of the bees; assay type: in vivo, Apis mellifera; details: end of experiment
Description: as §1, §2, §3

[8] = tested on: honey bees; test: Bee mortality in hoarding cages, 3c{3,6} provided in sugar solution; assay type: in vivo, Apis mellifera
Description: 3c{3,6} provided in sugar solution: The test was conducted on twenty freshly collected bees in hoarding cages as described above. […] In addition, no differences were apparent in the general behavior of the honeybees. Furthermore, honey bees can ingest compound 3c{3,6} without harm and without increase in mortality.

With `C=CCOc1ccc(OCCC)cc1` [3c{3,6}, 1-allyloxy-4-propoxybenzene] the “miticidal effect of dilutions” value ([1]; dilutions of 10 mM solution, any concentration) was “no miticidal effect”, the acaricidal effect ([1]; highest amount tested (30 μl), end of 24 h) was “clear acaricidal effect” and the “ability of Varroa to reach any host” value [2] was “decreased”. For the same compound, the “Survival of bees at the end” value ([3]; 300 μg in 30 μl hexane on Parafilm, 72 hours, control and treated groups similar) was 79-90%, the “lethal effect to the honey bees” value ([3]; in vivo) was “No lethal effect” and the “paralysis and mite death in screen” value ([4]; 1 mg dose, 3 h) was “most reliable mite paralysis”. The “net paralysis+death of mites, comparison of compounds” value ([4]; 0.5 and 1 mg/treatment) was “more active than 3c{6,6}”, the “EC50 for paralysis and eventual death of mites” value ([4]; neat compound on the source, vapors only, 3 h) was 41.5 µg and the “number of mites found on the bottom board per day” value [5] was “spike in the number of mites”. For the same compound, the “mites dropping from bees as function of time (FIG. 2)” value [6] was “dropped dead off the bees”, the condition of bees [7] was “remained in perfect shape” and the “effect on the honeybees” value [8] was “did not have negative effect”. For the same compound, the “bees died at the end of experiment” value ([8]; after 72 hours, treated group (control 21%)) was 5%.
